This is an account of results in the supplement of paper PMC10307832.

What all share (experiment): relative viability (nuclei count vs DMSO), 5 days (fraction); higher = more cells survive
Compound in experiment [1]: CN1C=C(C2=CC=CC=C21)/C=C\3/C4=C(C=CC=N4)NC3=O + O=C(CCCCCCC(=O)Nc1ccccc1)NO [Vorinostat] (partner 1 µM)
The procedure, abridged: (§1)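 The day after seeding in 1536-well plates, lung cancer cell lines were treated by pin tool with a single drug, or with a fixed anchor-drug dose together with five library-drug doses (not always all listed) in √10 steps. After 5 days, a combined fix-and-stain solution (final 0.05% Triton X-100, 1% formaldehyde, 1 ug/ml Hoechst) was added. Nuclei counted on 4× images gave relative viability as treated counts over vehicle counts, reported as the median of duplicate plates.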

Compound in experiment [2]: CN1C=C(C2=CC=CC=C21)/C=C\3/C4=C(C=CC=N4)NC3=O + Nc1nc2[nH]cc(CCc3ccc(C(=O)N[C@@H](CCC(=O)O)C(=O)O)cc3)c2c(=O)[nH]1 [Pemetrexed] (partner 0.2 µM)
The method, boiled down:
as §1

Compound in experiment [3]: CC(=O)Nc1cccc(-n2c(=O)n(C3CC3)c(=O)c3c(Nc4ccc(I)cc4F)n(C)c(=O)c(C)c32)c1 [Trametinib] + CC1(C)CCC(c2ccc(Cl)cc2)=C(CN2CCN(c3ccc(C(=O)NS(=O)(=O)c4ccc(N[C@H](CCN5CCOCC5)CSc5ccccc5)c(S(=O)(=O)C(F)(F)F)c4)cc3)CC2)C1 [Navitoclax] (partner 0.5 µM)
The method, boiled down:
as §1

Compound in experiment [4]: CC(=O)Nc1cccc(-n2c(=O)n(C3CC3)c(=O)c3c(Nc4ccc(I)cc4F)n(C)c(=O)c(C)c32)c1 [Trametinib] + Cc1nc(Nc2ncc(C(=O)Nc3c(C)cccc3Cl)s2)cc(N2CCN(CCO)CC2)n1 [Dasatinib] (partner 0.075 µM)
The procedure, abridged: as §1

Turning to UMC-11, the relative viability in experiment [1] (first compound 0.02 µM) stood at 0.323; in experiment [1] (first compound 0.06325 µM) it was 0.301; in experiment [1] (first compound 0.2 µM), 0.322; in experiment [1] (first compound 0.6325 µM) it was 0.391; in experiment [1] (first compound 2 µM), 0.36; in experiment [2] (first compound 0.02 µM) it was 0.655. Further, the relative viability in experiment [2] (first compound 0.06325 µM) came to 0.744; in experiment [2] (first compound 0.2 µM) it was 0.801; in experiment [2] (first compound 0.6325 µM), 0.857; in experiment [2] (first compound 2 µM) it was 0.936; in experiment [3] (first compound 0.0025 µM) it was 0.305; in experiment [3] (first compound 0.007906 µM), 0.32. Further, the relative viability is 0.288 in experiment [3] (first compound 0.025 µM); 0.266 in experiment [3] (first compound 0.07906 µM); 0.263 in experiment [3] (first compound 0.25 µM); 0.446 in experiment [4] (first compound 0.0025 µM); 0.509 in experiment [4] (first compound 0.007906 µM); 0.385 in experiment [4] (first compound 0.025 µM). Moreover, the results for the relative viability in experiment [4] (first compound 0.07906 µM) and in experiment [4] (first compound 0.25 µM) were 0.491 and 0.49, respectively.
